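Cells were grown in 96-well plates and exposed to each compound for 48 hours at five concentrations; endpoints were interpolated linearly between bracketing concentrations, or set to the highest concentration if not reached. TGI: total growth inhibition.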
Columns and labels:
Assay in all cases: NCI tumour cell line growth inhibition, 48 h
786-0 renal = tested on: 786-0 renal
A498 renal = tested on: A498 renal
A549 NSCLC = tested on: A549 NSCLC
ACHN renal = tested on: ACHN renal
CAKI-1 renal = tested on: CAKI-1 renal
CCRF-CEM leukemia = tested on: CCRF-CEM leukemia
COLO 205 colon = tested on: COLO 205 colon
DLD-1 colon = tested on: DLD-1 colon
DMS 114 small cell lung = tested on: DMS 114 small cell lung
DMS 273 small cell lung = tested on: DMS 273 small cell lung
EKVX NSCLC = tested on: EKVX NSCLC
HCC-2998 colon = tested on: HCC-2998 colon
HCT-116 colon = tested on: HCT-116 colon
HCT-15 colon = tested on: HCT-15 colon
HL-60(TB) leukemia = tested on: HL-60(TB) leukemia
HOP-18 NSCLC = tested on: HOP-18 NSCLC
HOP-62 NSCLC = tested on: HOP-62 NSCLC
HOP-92 NSCLC = tested on: HOP-92 NSCLC
HT29 colon = tested on: HT29 colon
IGROV1 ovarian = tested on: IGROV1 ovarian
K-562 leukemia = tested on: K-562 leukemia
KM12 colon = tested on: KM12 colon
KM20L2 colon = tested on: KM20L2 colon
LOX IMVI melanoma = tested on: LOX IMVI melanoma
LXFL 529 NSCLC = tested on: LXFL 529 NSCLC
M14 melanoma = tested on: M14 melanoma
M19-MEL melanoma = tested on: M19-MEL melanoma
MALME-3M melanoma = tested on: MALME-3M melanoma
MOLT-4 leukemia = tested on: MOLT-4 leukemia
NCI-H226 lung = tested on: NCI-H226 lung
NCI-H23 lung = tested on: NCI-H23 lung
NCI-H460 lung = tested on: NCI-H460 lung
NCI-H522 lung = tested on: NCI-H522 lung
OVCAR-3 ovarian = tested on: OVCAR-3 ovarian
OVCAR-4 ovarian = tested on: OVCAR-4 ovarian
OVCAR-5 ovarian = tested on: OVCAR-5 ovarian
OVCAR-8 ovarian = tested on: OVCAR-8 ovarian
RPMI-8226 leukemia = tested on: RPMI-8226 leukemia
RXF 393 renal = tested on: RXF 393 renal
RXF-631 renal = tested on: RXF-631 renal
SF-268 CNS = tested on: SF-268 CNS
SF-295 CNS = tested on: SF-295 CNS
SF-539 CNS = tested on: SF-539 CNS
SK-MEL-2 melanoma = tested on: SK-MEL-2 melanoma
SK-MEL-28 melanoma = tested on: SK-MEL-28 melanoma
SK-MEL-5 melanoma = tested on: SK-MEL-5 melanoma
SK-OV-3 ovarian = tested on: SK-OV-3 ovarian
SN12C renal = tested on: SN12C renal
SNB-19 CNS = tested on: SNB-19 CNS
SNB-75 CNS = tested on: SNB-75 CNS
SNB-78 CNS = tested on: SNB-78 CNS
SR leukemia = tested on: SR leukemia
SW-620 colon = tested on: SW-620 colon
TK-10 renal = tested on: TK-10 renal
U251 CNS = tested on: U251 CNS
UACC-257 melanoma = tested on: UACC-257 melanoma
UACC-62 melanoma = tested on: UACC-62 melanoma
UO-31 renal = tested on: UO-31 renal

How did the TGI (786-0 renal) turn out when `C[C@@]1(O)CC[C@]2(C)C3CCCC3[C@H]12` (stereo partly drawn) was run?
The TGI was > 100 µM.

What about the TGI (A498 renal) of the same compound?
The TGI was > 100 µM.

What about the TGI (A549 NSCLC) of the same compound?
Its TGI is > 100 µM.

What about the TGI (ACHN renal) of the same compound?
Its TGI is > 100 µM.

And the TGI (CAKI-1 renal)?
Its TGI is > 100 µM.

And the TGI (CCRF-CEM leukemia)?
The TGI was > 100 µM.

And the TGI (COLO 205 colon)?
The TGI was > 100 µM.

And the TGI (DLD-1 colon)?
The TGI was > 100 µM.

And the TGI (DMS 114 small cell lung)?
Its TGI is > 100 µM.

And the TGI (DMS 273 small cell lung)?
Its TGI is > 100 µM.

What about the TGI (EKVX NSCLC) of the same compound?
The TGI was > 100 µM.

What about the TGI (HCC-2998 colon) of the same compound?
The TGI was > 100 µM.

What about the TGI (HCT-116 colon) of the same compound?
The TGI was > 100 µM.

And the TGI (HCT-15 colon)?
The TGI was > 100 µM.

What about the TGI (HL-60(TB) leukemia) of the same compound?
The TGI was > 100 µM.

What about the TGI (HOP-18 NSCLC) of the same compound?
Its TGI is > 100 µM.

What about the TGI (HOP-62 NSCLC) of the same compound?
The TGI was > 100 µM.

And the TGI (HOP-92 NSCLC)?
The TGI was > 100 µM.

And the TGI (HT29 colon)?
Its TGI is > 100 µM.

What about the TGI (IGROV1 ovarian) of the same compound?
Its TGI is > 100 µM.

What about the TGI (K-562 leukemia) of the same compound?
Its TGI is > 100 µM.

And the TGI (KM12 colon)?
The TGI was > 100 µM.

What about the TGI (KM20L2 colon) of the same compound?
Its TGI is > 100 µM.

And the TGI (LOX IMVI melanoma)?
The TGI was > 100 µM.

What about the TGI (LXFL 529 NSCLC) of the same compound?
Its TGI is > 100 µM.

And the TGI (M14 melanoma)?
Its TGI is > 100 µM.

What about the TGI (M19-MEL melanoma) of the same compound?
The TGI was > 100 µM.

What about the TGI (MALME-3M melanoma) of the same compound?
The TGI was > 100 µM.

And the TGI (MOLT-4 leukemia)?
The TGI was > 100 µM.

What about the TGI (NCI-H226 lung) of the same compound?
Its TGI is > 100 µM.

What about the TGI (NCI-H23 lung) of the same compound?
The TGI was > 100 µM.

And the TGI (NCI-H460 lung)?
Its TGI is > 100 µM.

And the TGI (NCI-H522 lung)?
The TGI was > 100 µM.

What about the TGI (OVCAR-3 ovarian) of the same compound?
Its TGI is > 100 µM.

What about the TGI (OVCAR-4 ovarian) of the same compound?
Its TGI is > 100 µM.

And the TGI (OVCAR-5 ovarian)?
The TGI was > 100 µM.

And the TGI (OVCAR-8 ovarian)?
Its TGI is > 100 µM.

What about the TGI (RPMI-8226 leukemia) of the same compound?
The TGI was > 100 µM.

What about the TGI (RXF 393 renal) of the same compound?
The TGI was > 100 µM.

What about the TGI (RXF-631 renal) of the same compound?
Its TGI is > 100 µM.

And the TGI (SF-268 CNS)?
The TGI was > 100 µM.

What about the TGI (SF-295 CNS) of the same compound?
The TGI was > 100 µM.

What about the TGI (SF-539 CNS) of the same compound?
The TGI was > 100 µM.

And the TGI (SK-MEL-2 melanoma)?
The TGI was > 100 µM.

And the TGI (SK-MEL-28 melanoma)?
The TGI was > 100 µM.

What about the TGI (SK-MEL-5 melanoma) of the same compound?
Its TGI is > 100 µM.

What about the TGI (SK-OV-3 ovarian) of the same compound?
The TGI was > 100 µM.

And the TGI (SN12C renal)?
The TGI was > 100 µM.

And the TGI (SNB-19 CNS)?
Its TGI is > 100 µM.

What about the TGI (SNB-75 CNS) of the same compound?
Its TGI is > 100 µM.

And the TGI (SNB-78 CNS)?
Its TGI is > 100 µM.

And the TGI (SR leukemia)?
Its TGI is > 100 µM.

What about the TGI (SW-620 colon) of the same compound?
The TGI was > 100 µM.

And the TGI (TK-10 renal)?
Its TGI is > 100 µM.

What about the TGI (U251 CNS) of the same compound?
The TGI was > 100 µM.

What about the TGI (UACC-257 melanoma) of the same compound?
Its TGI is > 100 µM.

What about the TGI (UACC-62 melanoma) of the same compound?
Its TGI is > 100 µM.

And the TGI (UO-31 renal)?
The TGI was > 100 µM.

How did the TGI (786-0 renal) turn out when `COc1ccc2c(c1)[n+]([O-])c(C(N)=O)c(N)[n+]2[O-]` was run?
Its TGI is > 100 µM.

And the TGI (A498 renal)?
Its TGI is > 100 µM.

What about the TGI (A549 NSCLC) of the same compound?
Its TGI is > 100 µM.

And the TGI (ACHN renal)?
Its TGI is > 100 µM.

What about the TGI (CAKI-1 renal) of the same compound?
The TGI was > 100 µM.

What about the TGI (COLO 205 colon) of the same compound?
Its TGI is 46.2 µM.

What about the TGI (DLD-1 colon) of the same compound?
The TGI was > 100 µM.

What about the TGI (DMS 114 small cell lung) of the same compound?
Its TGI is 98.8 µM.

What about the TGI (DMS 273 small cell lung) of the same compound?
The TGI was > 100 µM.

And the TGI (EKVX NSCLC)?
Its TGI is > 100 µM.

What about the TGI (HCT-116 colon) of the same compound?
Its TGI is > 100 µM.

And the TGI (HCT-15 colon)?
Its TGI is > 100 µM.

What about the TGI (HL-60(TB) leukemia) of the same compound?
Its TGI is > 100 µM.

What about the TGI (HOP-18 NSCLC) of the same compound?
The TGI was > 100 µM.

And the TGI (HOP-62 NSCLC)?
The TGI was > 100 µM.

What about the TGI (HOP-92 NSCLC) of the same compound?
The TGI was > 100 µM.

And the TGI (HT29 colon)?
The TGI was > 100 µM.

And the TGI (IGROV1 ovarian)?
The TGI was > 100 µM.

And the TGI (K-562 leukemia)?
Its TGI is > 100 µM.

What about the TGI (KM12 colon) of the same compound?
Its TGI is > 100 µM.

What about the TGI (KM20L2 colon) of the same compound?
The TGI was > 100 µM.

And the TGI (LXFL 529 NSCLC)?
Its TGI is > 100 µM.

What about the TGI (M14 melanoma) of the same compound?
The TGI was > 100 µM.

And the TGI (M19-MEL melanoma)?
Its TGI is > 100 µM.

And the TGI (MALME-3M melanoma)?
Its TGI is > 100 µM.

And the TGI (NCI-H226 lung)?
The TGI was > 100 µM.

What about the TGI (NCI-H23 lung) of the same compound?
The TGI was 97.7 µM.

What about the TGI (NCI-H460 lung) of the same compound?
Its TGI is > 100 µM.

And the TGI (NCI-H522 lung)?
The TGI was 31.1 µM.

What about the TGI (OVCAR-3 ovarian) of the same compound?
Its TGI is 98.5 µM.

And the TGI (OVCAR-4 ovarian)?
The TGI was > 100 µM.

And the TGI (OVCAR-5 ovarian)?
Its TGI is > 100 µM.

And the TGI (OVCAR-8 ovarian)?
Its TGI is > 100 µM.

What about the TGI (RPMI-8226 leukemia) of the same compound?
Its TGI is > 100 µM.

What about the TGI (RXF-631 renal) of the same compound?
Its TGI is > 100 µM.

What about the TGI (SF-295 CNS) of the same compound?
The TGI was > 100 µM.

And the TGI (SF-539 CNS)?
The TGI was > 100 µM.

And the TGI (SK-MEL-2 melanoma)?
The TGI was > 100 µM.

What about the TGI (SK-MEL-28 melanoma) of the same compound?
Its TGI is > 100 µM.

What about the TGI (SK-MEL-5 melanoma) of the same compound?
The TGI was > 100 µM.

And the TGI (SK-OV-3 ovarian)?
The TGI was > 100 µM.

And the TGI (SN12C renal)?
The TGI was > 100 µM.

And the TGI (SNB-19 CNS)?
The TGI was > 100 µM.

And the TGI (SNB-75 CNS)?
The TGI was > 100 µM.

And the TGI (SNB-78 CNS)?
Its TGI is > 100 µM.

What about the TGI (SR leukemia) of the same compound?
The TGI was > 100 µM.

What about the TGI (SW-620 colon) of the same compound?
Its TGI is > 100 µM.

And the TGI (U251 CNS)?
Its TGI is > 100 µM.

And the TGI (UACC-257 melanoma)?
Its TGI is 94.6 µM.

What about the TGI (UO-31 renal) of the same compound?
Its TGI is > 100 µM.

Reference: PubChem BioAssay (NCI)
